Paper PMC3389674, “Comparison of Soluble Guanylate Cyclase Stimulators and Activators in Models of Cardiovascular Disease Associated with Oxidative Stress” (Frontiers in Pharmacology, 2012)
Like-named read-outs stand apart in the source and are kept apart here.

How the values were obtained:
[1] = target: T1, sGC (Rattus norvegicus, UniProt P20595); assay: P-VASP formation in rat aortic smooth muscle cells; format: cell-based
T1 construct: in rat aortic smooth muscle cells; endogenous in cells; host or cells: primary rat aortic smooth muscle cells
T1 sequence (P20595 1-619): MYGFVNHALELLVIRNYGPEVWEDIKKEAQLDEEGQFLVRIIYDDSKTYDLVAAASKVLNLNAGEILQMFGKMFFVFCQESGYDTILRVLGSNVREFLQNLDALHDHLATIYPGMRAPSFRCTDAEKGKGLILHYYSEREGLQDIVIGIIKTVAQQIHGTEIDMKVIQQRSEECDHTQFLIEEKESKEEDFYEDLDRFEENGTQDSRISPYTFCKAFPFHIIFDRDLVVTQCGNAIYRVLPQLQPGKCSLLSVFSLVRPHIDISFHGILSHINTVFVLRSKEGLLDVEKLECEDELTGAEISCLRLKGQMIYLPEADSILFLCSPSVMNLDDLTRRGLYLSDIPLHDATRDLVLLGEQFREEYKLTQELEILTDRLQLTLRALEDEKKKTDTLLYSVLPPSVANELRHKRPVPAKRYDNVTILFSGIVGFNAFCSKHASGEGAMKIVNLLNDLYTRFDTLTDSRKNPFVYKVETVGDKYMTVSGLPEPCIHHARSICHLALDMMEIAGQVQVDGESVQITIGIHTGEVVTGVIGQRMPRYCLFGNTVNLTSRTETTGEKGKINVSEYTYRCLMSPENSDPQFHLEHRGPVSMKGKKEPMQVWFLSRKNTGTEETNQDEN
T1 sequence (P19686 1-690 partner): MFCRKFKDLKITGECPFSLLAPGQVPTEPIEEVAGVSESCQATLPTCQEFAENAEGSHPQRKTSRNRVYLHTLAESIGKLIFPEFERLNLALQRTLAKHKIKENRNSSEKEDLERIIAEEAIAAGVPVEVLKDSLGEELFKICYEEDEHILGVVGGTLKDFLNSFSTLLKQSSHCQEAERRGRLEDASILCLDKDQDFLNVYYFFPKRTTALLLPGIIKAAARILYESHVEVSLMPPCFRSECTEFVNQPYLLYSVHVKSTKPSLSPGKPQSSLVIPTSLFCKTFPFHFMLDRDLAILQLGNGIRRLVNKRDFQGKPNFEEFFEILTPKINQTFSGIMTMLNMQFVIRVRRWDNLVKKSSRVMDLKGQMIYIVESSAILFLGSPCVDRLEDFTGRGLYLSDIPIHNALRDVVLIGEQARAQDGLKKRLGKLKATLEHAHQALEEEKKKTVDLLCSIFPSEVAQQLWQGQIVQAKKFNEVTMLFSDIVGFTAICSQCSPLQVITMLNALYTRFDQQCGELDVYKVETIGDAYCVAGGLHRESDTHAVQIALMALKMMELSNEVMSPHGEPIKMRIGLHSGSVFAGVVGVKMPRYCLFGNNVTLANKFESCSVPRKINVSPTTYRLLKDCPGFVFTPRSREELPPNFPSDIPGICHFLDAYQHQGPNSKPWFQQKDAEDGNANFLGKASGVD
Experimental: The potency, efficacy, and mechanism of action of the sGC modulators GSK2181236A and BAY 60-4552 were assessed by measuring phosphorylation of the protein kinase G (PKG) substrate […] (VASP) in rat aortic smooth muscle cells. […] Dimethylsulfoxide (DMSO) vehicle or varying concentrations of GSK2181236A (2 pM to 1 μM) or BAY 60-4552 (15 nM to 100 μM) were then added. Following a 30 min incubation at 37°C, media was aspirated and the cells were rinsed with phosphate-buffered saline (PBS) and fixed with 4% formaldehyde in PBS by incubating at room temperature for 20 min. Cells were then washed with PBS and permeabilized for 10 min using 0.1% triton X-100 in PBS. Following PBS rinsing, the cells were blocked for 90 min at room temperature with Odyssey Blocking Buffer (LI-COR, Cambridge, UK). The buffer was aspirated and the cells were treated overnight at 4°C with primary antibody [(pSer^239) VASP, rabbit polyclonal Ab, Cell Signaling Technology, Danvers, MA, USA] diluted 1:500 in Odyssey Blocking Buffer. Following three washes with 0.05% Tween 20, the cells were treated for 1 h at room temperature with secondary antibody (IRDye® 800CW Donkey Anti-Rabbit IgG, LI-COR) diluted 1:2500 in Odyssey Blocking Buffer with 0.05% Tween 20. Following two washes with PBS, infrared fluorescence was measured using an Odyssey Infrared Imaging System (LI-COR).

[2] = system: Sprague Dawley rats; assay: radiotelemetry heart rate and blood pressure after single oral dose; format: in vivo, rat
Experimental: To identify equi-efficacious doses of GSK2181236A and BAY 60-4552, heart rate and blood pressure were monitored in male Sprague Dawley (SD) rats (∼500g, n = 4–6 per group) via surgically implanted radiotelemetry transmitters (PhysioTel PA-C40, Data Sciences International, St. Paul, MN, USA). Following oral gavage dosing (0.03–3.0 mg/kg), hemodynamic data were recorded every 5 min for 10 s and then averaged every hour.

[3] = system: SHR-SP isolated aorta; assay: direct vasodilatory effects in aorta isolated from ND and HSFD SHR-SP; design: species or system rat; details: for EC50: read-out: EC50, direct vasodilation
Experimental: In separate studies, endothelial function was assessed following chronic (7 week) BAY 60-4552 or GSK2181236A treatment in SHR-SP on HSFD. SHR-SP fed either normal or HSFD served as controls. Rats were anesthetized and thoracic aorta were isolated and treated with KCl and phenylephrine as described above. Cumulative concentration-response curves to phenylephrine were obtained by adding 0.5 log unit increments (1 nM to 3 μM). Following several washes with KHB, each vessel was contracted to equilibrium with 0.3 μM phenylephrine and tone was reversed by adding cumulative amounts of carbachol at 0.5 log unit intervals (10 nM to 30 μM). Following several KHB washes, the tissues were again contracted to equilibrium with 0.3 μM phenylephrine and tone was reversed by adding cumulative amounts of SNP at 0.5 log unit intervals (0.1 nM to 3 μM). In separate tissues from both the normal and HSFD SHR-SP control groups, the direct vasodilatory effects of BAY 60-4552 and GSK2181236A were investigated. Contractile tone induced by 0.3 μM phenylephrine was reversed by adding cumulative concentrations of BAY 60-4552 or GSK2181236A to the tissue baths at log increments (0.1 nM to 10 μM).

Row | SMILES | EC50 ([1]; Control (no ODQ)) [nM] | Emax, P-VASP formation ([1]; Control (no ODQ)) [% DMSO] | leftward-shift of P-VASP concentration-response curve by ODQ ([1]; ODQ 10 μM vs control) [fold] | Emax ([1]; ODQ 10 μM vs control, read-out: augmentation of P-VASP maximal response by ODQ) [%] | EC50 ([1]; ODQ (10 μM) pre-treatment) [nM] | Emax, P-VASP formation ([1]; ODQ (10 μM) pre-treatment) [% DMSO] | lowering of mean arterial pressure (MAP) ([2]; high dose) | potency on heart rate and blood pressure, more potent than BAY 60-4552 ([2]; rat, in vivo) [fold] | doses that increased heart rate and reduced blood pressure ([2]; single p.o. dose) [mg/kg] | highest no-effect dose on heart rate and blood pressure ([2]; single p.o. dose) [mg/kg] | EC50 ([3]; Rattus norvegicus, aorta from HSFD SHR-SP) [nM] | EC50 ([3]; Rattus norvegicus, aorta from ND SHR-SP) [nM] | Emax, direct vasodilation ([3]; aorta from HSFD SHR-SP) [% vasodilation] | Emax, direct vasodilation ([3]; aorta from ND SHR-SP) [% vasodilation] | rightward-shift of P-VASP concentration-response curve by ODQ ([1]; ODQ 10 μM vs control) [fold] | suppression of P-VASP maximal response by ODQ (trend) ([1]; ODQ 10 μM vs control) [%] | potency on heart rate and blood pressure, less potent than GSK2181236A ([2]; rat, in vivo) | EC50 ([3]; aorta from HSFD SHR-SP) [nM] | EC50 ([3]; aorta from ND SHR-SP) [nM]
1 | Cc1cc(-c2ccc(OC(F)(F)F)cc2)ccc1COc1ccccc1-c1cccc(-n2ncc(C(=O)O)c2C(F)(F)F)n1 [GSK2181236A, 1-(6-{2-[({3-methyl-4′-[(trifluoromethyl)oxy]-4-biphenylyl}methyl)oxy]phenyl}-2-pyridinyl)-5-(trifluoromethyl)-1H-pyrazole-4-carboxylic acid] | 12.7 ± 4.7 | 379 ± 26 | 4.7 | 32 | 2.7 ± 0.6 | 502 ± 26 | 5–10 mmHg | ~3 | ≥ 0.3 | 0.1 | 321 ± 168 | 270 ± 70 | 110 ± 7 | 110 ± 3 | – | – | – | – | –
2 | COC(=O)Nc1c(N)nc(-c2nn(Cc3ccccc3F)c3ncccc23)nc1N [BAY 60-4552] | 353 ± 89 | 388 ± 39 | – | – | 3260 | 362 ± 24 | – | – | – | 0.3 | – | – | 111 ± 2 | 110 ± 2 | 9.8 | 7 | approximately threefold | 54 ± 14 | 75 ± 16
